Read-outs that look alike come from different tables or passages of the source.
Columns and labels:
HIV-1 (IIIB) = assay: microbe, parasite or virus in culture; type: cell-based; details: Human immunodeficiency virus 1, IIIB, MT4, 120 h, read-out: MT4 EC50
pLAI reporter virus = assay: microbe, parasite or virus in culture; type: cell-based, HIV; details: Human immunodeficiency virus 1, MT4, 72 h
in vitro = details: human, uninfected MT-4 cells
Method: Compounds were serially diluted (1:3) in DMSO on 384-well polypropylene plates and further diluted 200-fold into complete RPMI media (10% FBS, 1% P/S) using the Biotek Micro Flow and Labcyte ECHO acoustic dispenser. […] Infected and uninfected MT-4 cells were further diluted in complete RPMI media and added to each plate using a Micro Flow dispenser. After 5 days incubation in a humidified and temperature controlled incubator (37° C.), Cell Titer Glo (Promega) was added to the assay plates and chemiluminescence read using an Envision plate-reader.
Assays were performed as above except uninfected MT-4 cells were added to each well containing test compound. In addition, 10 μM puromycin was added to the last column of each assay plate to assess a base level of cytotoxicity.

[1] = HIV-1 (IIIB) in MT-4 cells, 5 days incubation, Cell Titer Glo

Row | Compound | EC50 (HIV-1 (IIIB); [1]) [nM] | EC50 (pLAI reporter virus; read-out: RLUC 50% HS EC50) [nM] | EC50 (pLAI reporter virus; read-out: RLUC CCM EC50) [nM] | CC50 at 5 days (in vitro) [nM] | EC50 (HIV-1 (IIIB)) [nM]
1 | C[C@H]1CC[C@]2(CC(CCF)=NO2)[C@H]2CN1C(=O)c1c(O)c(=O)c(C(=O)NCc3c(F)cc(F)cc3F)cn12 [Example 69, (3′S,5S,7′R)-3-(2-fluoroethyl)-12′-hydroxy-3′-methyl-1′,11′-dioxo-N-(2,4,6-trifluorobenzyl)-1′,4′,5′,11′-tetrahydro-3′H,4H,7′H-spiro[isoxazole-5,6′-[2,7]methanopyrido[1,2-a][1,4]diazonine]-10′-carboxamide] | 1.3 | 94.1 | 0.2 | 26300 | 
2 | C[C@H]1CC[C@]2(COCCO2)[C@H]2CN1C(=O)c1c(O)c(=O)c(C(=O)NCc3c(F)cc(F)cc3F)cn12 [Example 139, (2R,3′S,7′R)-12′-hydroxy-3′-methyl-1′,11′-dioxo-N-(2,4,6-trifluorobenzyl)-1′,4′,5′,11′-tetrahydro-3′H,7′H-spiro[[1,4]dioxane-2,6′-[2,7]methanopyrido[1,2-a][1,4]diazonine]-10′-carboxamide] | 1.4 | 83.7 | 0.1 | 30900 | 
3 | CO[C@H]1CS[C@]2(CC[C@H](C)N3C[C@H]2n2cc(C(=O)NCc4c(F)cc(F)cc4F)c(=O)c(O)c2C3=O)O1 (single isomer, unassigned) [170 (peak 1)] | 1.3 | 5 | 0.3 | 42000 | 
4 | COC1=NS[C@]2(CC[C@H](C)N3C[C@H]2n2cc(C(=O)NCc4ccc(F)cc4F)c(=O)c(O)c2C3=O)C1 [Example 145, (3′S,5R,7′R)—N-(2,4-difluorobenzyl)-12′-hydroxy-3-methoxy-3′-methyl-1′,11′-dioxo-1′,4′,5′,11′-tetrahydro-3′H,4H,7′H-spiro[isothiazole-5,6′-[2,7]methanopyrido[1,2-a][1,4]diazonine]-10′-carboxamide] | 3.8 | 7.5 | 1.1 | ≥ 50000 | 
5 | C[C@H]1CC[C@]2(CC(C(C)(F)F)=NO2)[C@H]2CN1C(=O)c1c(O)c(=O)c(C(=O)NCc3c(F)cc(F)cc3F)cn12 [Example 71, (3′S,5S,7′R)-3-(1,1-difluoroethyl)-12′-hydroxy-3′-methyl-1′,11′-dioxo-N-(2,4,6-trifluorobenzyl)-1′,4′,5′,11′-tetrahydro-3′H,4H,7′H-spiro[isoxazole-5,6′-[2,7]methanopyrido[1,2-a][1,4]diazonine]-10′-carboxamide] | 3.3 | 82.4 | 0.2 | 32100 | 
6 | CC1=NO[C@@]2(CC[C@H](C)N3C[C@H]2n2cc(C(=O)NCc4c(F)cc(F)cc4F)c(=O)c(O)c2C3=O)O1 [Example 92, (3′S,5R,7′R)-12′-hydroxy-3,3′-dimethyl-1′,11′-dioxo-N-(2,4,6-trifluorobenzyl)-1′,4′,5′,11′-tetrahydro-3′H,7′H-spiro[[1,4,2]dioxazole-5,6′-[2,7]methanopyrido[1,2-a][1,4]diazonine]-10′-carboxamide] | 0.7 | 409 | 0.2 | 24900 | 
7 | COC1=NO[C@@]2(CC[C@H](C)N3C[C@H]2n2cc(C(=O)NCc4c(F)cc(F)cc4F)c(=O)c(O)c2C3=O)[C@H]1C [Example 85, (3′S,4R,5S,7′R)-12′-hydroxy-3-methoxy-3′,4-dimethyl-1′,11′-dioxo-N-(2,4,6-trifluorobenzyl)-1′,4′,5′,11′-tetrahydro-3′H,4H,7′H-spiro[isoxazole-5,6′-[2,7]methanopyrido[1,2-a][1,4]diazonine]-10′-carboxamide] | 1 | 28.7 | 0.2 | 29600 | 
8 | C[C@H]1CC[C@]2(CC(=O)N(Cc3ccc(Br)cc3)O2)[C@H]2CN1C(=O)c1c(O)c(=O)c(C(=O)NCc3c(F)cc(F)cc3F)cn12 [Example 158, (3′S,5S,7′R)-2-(4-bromobenzyl)-12′-hydroxy-3′-methyl-1′,3,11′-trioxo-N-(2,4,6-trifluorobenzyl)-1′,4′,5′,11′-tetrahydro-3′H,7′H-spiro[isoxazolidine-5,6′-[2,7]methanopyrido[1,2-a][1,4]diazonine]-10′-carboxamide] | 1.7 | 3.2 | 0.8 | 2120 | 
9 | C[C@H]1CC[C@]2(CC(=O)N(Cc3cccnc3)O2)[C@H]2CN1C(=O)c1c(O)c(=O)c(C(=O)NCc3c(F)cc(F)cc3F)cn12 [Example 160, (3′S,5S,7′R)-12′-hydroxy-3′-methyl-1′,3,11′-trioxo-2-(pyridin-3-ylmethyl)-N-(2,4,6-trifluorobenzyl)-1′,4′,5′,11′-tetrahydro-3′H,7′H-spiro[isoxazolidine-5,6′-[2,7]methanopyrido[1,2-a][1,4]diazonine]-10′-carboxamide] | 1.5 | 0.5 | 1.6 | ≥ 50000 | 
10 | C[C@H]1CC[C@]2(CC(OCC(F)(F)F)=NO2)[C@H]2CN1C(=O)c1c(O)c(=O)c(C(=O)NCc3ccc(F)cc3F)cn12 [Example 46, (3′S,5S,7′R)—N-(2,4-difluorobenzyl)-12′-hydroxy-3′-methyl-1′,11′-dioxo-3-(2,2,2-trifluoroethoxy)-1′,4′,5′,11′-tetrahydro-3′H,4H,7′H-spiro[isoxazole-5,6′-[2,7]methanopyrido[1,2-a][1,4]diazonine]-10′-carboxamide] | 1.7 | 2.3 | 0.1 | 7720 | 
11 | C[C@H]1CC[C@]2(CC(Cl)=NO2)[C@H]2CN1C(=O)c1c(O)c(=O)c(C(=O)NCc3c(F)cc(F)cc3F)cn12 [Example 53, (3′S,5S,7′R)-3-chloro-12′-hydroxy-3′-methyl-1′,11′-dioxo-N-(2,4,6-trifluorobenzyl)-1′,4′,5′,11′-tetrahydro-3′H,4H,7′H-spiro[isoxazole-5,6′-[2,7]methanopyrido[1,2-a][1,4]diazonine]-10′-carboxamide] |  | 166 | 0.3 | 9470 | 1.7
12 | C[C@H]1CC[C@]2(CC(CF)=NO2)[C@H]2CN1C(=O)c1c(O)c(=O)c(C(=O)NCc3ncc(F)c(Cl)c3F)cn12 [Example 66, (3′S,5S,7′R)—N-((4-chloro-3,5-difluoropyridin-2-yl)methyl)-3-(fluoromethyl)-12′-hydroxy-3′-methyl-1′,11′-dioxo-1′,4′,5′,11′-tetrahydro-3′H,4H,7′H-spiro[isoxazole-5,6′-[2,7]methanopyrido[1,2-a][1,4]diazonine]-10′-carboxamide] | 3.9 | 561 | 0.8 | 30100 | 
13 | C[C@H]1CC[C@]2(CCC(=O)N2)[C@H]2CN1C(=O)c1c(O)c(=O)c(C(=O)NCc3c(F)cc(F)cc3F)cn12 [Example 121, (2S,3′S,7′R)-12′-hydroxy-3′-methyl-1′,5,11′-trioxo-N-(2,4,6-trifluorobenzyl)-1′,4′,5′,11′-tetrahydro-3′H,7′H-spiro[pyrrolidine-2,6′-[2,7]methanopyrido[1,2-a][1,4]diazonine]-10′-carboxamide] | 86.5 | 19.9 | 16.9 | ≥ 50000 | 
14 | COCCOC1=NO[C@@]2(CC[C@H](C)N3C[C@H]2n2cc(C(=O)NCc4ccc(F)cc4F)c(=O)c(O)c2C3=O)C1 [Example 41, (3′S,5S,7′R)—N-(2,4-difluorobenzyl)-12′-hydroxy-3-(2-methoxyethoxy)-3′-methyl-1′,11′-dioxo-1′,4′,5′,11′-tetrahydro-3′H,4H,7′H-spiro[isoxazole-5,6′-[2,7]methanopyrido[1,2-a][1,4]diazonine]-10′-carboxamide] | 0.6 | 0.5 | 0.4 | 21500 | 
15 | CC1=NO[C@]2(CC[C@H](C)N3C[C@H]2n2cc(C(=O)NCc4ccc(F)cc4F)c(=O)c(O)c2C3=O)C1=O [Example 25, (3′S,5S,7′R)—N-(2,4-difluorobenzyl)-12′-hydroxy-3,3′-dimethyl-1′,4,11′-trioxo-1′,4′,5′,11′-tetrahydro-3′H,4H,7′H-spiro[isoxazole-5,6′-[2,7]methanopyrido[1,2-a][1,4]diazonine]-10′-carboxamide] | ≥ 100 | 58.1 | 34 | ≥ 50000 | 
16 | CC1=NO[C@@]2(CC[C@H](C)N3C[C@H]2n2cc(C(=O)NCc4ccc(F)cc4F)c(=O)c(O)c2C3=O)N1C [Example 149a, (3′S,5R,7′R)—N-(2,4-difluorobenzyl)-12′-hydroxy-3,3′,4-trimethyl-1′,11′-dioxo-1′,4′,5′,11′-tetrahydro-3′H,4H,7′H-spiro[[1,2,4]oxadiazole-5,6′-[2,7]methanopyrido[1,2-a][1,4]diazonine]-10′-carboxamide] | 2 | 4.8 | 0.8 | ≥ 50000 | 
17 | C[C@H]1CC[C@@]2(CN(C)C(=O)O2)[C@H]2CN1C(=O)c1c(O)c(=O)c(C(=O)NCc3c(F)cc(F)cc3F)cn12 [Example 60, (3′S,5R,7′R)-12′-hydroxy-3,3′-dimethyl-1′,2,11′-trioxo-N-(2,4,6-trifluorobenzyl)-1′,4′,5′,11′-tetrahydro-3′H,7′H-spiro[oxazolidine-5,6′-[2,7]methanopyrido[1,2-a][1,4]diazonine]-10′-carboxamide] | 78.6 | 31.2 | 25.2 | ≥ 50000 | 
18 | COc1ccc(CN2O[C@@]3(CC[C@H](C)N4C[C@H]3n3cc(C(=O)NCc5c(F)cc(F)cc5F)c(=O)c(O)c3C4=O)CC2=O)cc1 [Example 119, (3′S,5S,7′R)-12′-hydroxy-2-(4-methoxybenzyl)-3′-methyl-1′,3,11′-trioxo-N-(2,4,6-trifluorobenzyl)-1′,4′,5′,11′-tetrahydro-3′H,7′H-spiro[isoxazolidine-5,6′-[2,7]methanopyrido[1,2-a][1,4]diazonine]-10′-carboxamide] | 1.5 | 2.3 | 0.5 | ≥ 50000 | 

— patent US20250115620A1, “BRIDGED TRICYCLIC CARBAMOYLPYRIDONE COMPOUNDS AND USES THEREOF” (Gilead Sciences, Inc., priority 2022, published 2025)
